{"source": "patent US11083735B2", "about": "“Methods for treating sleep disorders, sleep disturbances, and related symptoms using aminosterol compositions” (Enterin, Inc., priority 2017, dated 2021)", "key": {"patients with PD": {"tested_on": "patients with PD", "experiment": "Phase 2 trial Stage 2: CNS symptoms (UPDRS, MMSE, BDI-II, PDHQ, hallucinations)", "format": "in vivo, human", "text": "(8) Beck Depression Inventory (BDI-II);\n(9) Unified Parkinson's Disease Rating Scale (UPDRS), which consists of 42 items in four subscales (Part I=Non-Motor Aspects of Experiences of Daily Living (nM-EDL) (1.1 cognitive impairment, 1.2 hallucinations and psychosis, 1.3 depressed mood, Part II=Motor Aspects of Experiences of Daily Living (M-EDL), Part III=Motor Examination, and Part IV=Motor Complications;\n(10) Mini Mental State Examination (MMSE);\n(12) The University of Miami Parkinson's Disease Hallucinations Questionnaire (UM-PDHQ);\nExploratory end-points, in addition to constipation, included for example, (i) depression assessed using the Beck Depression Inventory (BDI-II) (Steer et al. 2000) and Unified Parkinson's Disease Rating Scale (UPDRS); (ii) cognition assessed using the Mini Mental State Examination (MMSE) (Palsteia et al. 2018), Unified Parkinson's Disease Rating Scale (UPDRS), and Trail Making Test (TMT); (iii) sleep and REM-behavior disorder (RBD) using a daily sleep diary, I-Button Temperature Assessment, a REM sleep behavior disorder (RBD) questionnaire (RBDQ) (Stiasny-Kolster et al. 2007), and the UPDRS; (iv) hallucinations assessed using the PD hallucinations questionnaire (PDHQ) (Papapetropoulos et al. 2008), the UPDRS, and direct questioning; (v) fatigue using the Parkinson's Disease Fatigue Scale (PFS-16) and the UPDRS; (vi) motor functions using the UPDRS; and (vii) non-motor functions using the UPDRS.\nAssessments were made at baseline and at the end of the fixed dose and washout periods. Circadian system status was evaluated by continuously monitoring wrist skin temperature (Thermochron iButton DS1921H; Maxim, Dallas) following published procedures (Sarabia et al. 2008).\nCNS Symptoms in Stage 2: An exploratory analysis was done with respect to the sleep data, the body temperature data, mood, fatigue, hallucinations, cognition and other motor and non-motor symptoms of PD. Continuous measurements within a subject were compared with a paired t-test and continuous measurements between subject groups were compared with a two-group t-test. Categorical data were compared with a chi-squared test or a Fisher's exact test if the expected cell counts are too small for a chi-squared test.\nCNS symptoms: CNS symptoms were evaluated at baseline and at the end of the fixed dose period and the wash-out period (Table 16). Total UPDRS score was 64.4 at baseline, 60.6 at the end of the fixed dose period and 55.7 at the end of the wash-out period (p=0.002); similarly, the motor component of the UPDRS improved from 35.3 at baseline to 33.3 at the end of fixed dose to 30.2 at the end of wash-out (p=0.006). MMSE improved from 28.4 at baseline to 28.7 during treatment and to 29.3 during wash-out (p=0.0006). […] PDHQ improved from 1.3 at baseline to 1.8 during treatment and 0.9 during wash-out (p=0.03). Hallucinations were reported by 5 patients at baseline and delusions in 1 patient. […] The frequency of arm or leg thrashing reported in the sleep diary diminished progressively from 2.2 episodes/week at baseline to 0 at maximal dose. […] Unlike stool-related indices, the improvement in many CNS symptoms persisted during wash-out."}, "αS": {"molecular_target": "αS (Homo sapiens, UniProt P37840)", "settings": "in vitro (Perni et al. 2017); cited from earlier work"}, "[1]": {"experiment": "Preclinical oral studies in dogs (bioavailability, tolerability)"}, "[2]": {"experiment": "Duration of the aminosterol-induced response after a single oral dose", "format": "in vivo, human", "settings": "single 200 mg oral dose", "text": "The invention is also based on the discovery of unexpected and unprecedented activity of orally or nasally administered squalamine and related aminosterols (e.g., aminosterol 1436). The activity relates to stimulating a sequence of events within the human GI tract with therapeutic value. With respect to this activity, the sequence of events stimulated by an aminosterol such as squalamine or aminosterol 1436 involves the induction of an intestinal secretory response followed by a period of “small intestinal quieting,” and the subsequent passage of a normally formed bowel movement. These events are best explained as a consequence of the stimulation of a heretofore unknown physiological gastrointestinal response, in this invention shown to be controlled or initiated by an effective oral dose of an aminosterol such as squalamine or the related aminosterol, 1436 (Aminosterol-Induced GI Response). The activity relates to stimulating the neural connections between the enteric nervous system and the brain with therapeutic value, which can thereby impact sleeping disorders, sleeping disturbances, or related symptoms, as described herein. With respect to this activity, the sequence of events stimulated by an aminosterol involves the entrainment of the circadian clock, the suprachiasmatic nucleus, and an improvement in the quality of sleep. […]"}}, "note": "Values joined by “and” are separate entries in the source; they are usually repeats but may differ in a detail not shown here. Equal entries are not always repeated."}
{"smiles": "CC(C)[C@@H](CC[C@@H](C)[C@H]1CC[C@H]2[C@@H]3[C@H](O)C[C@H]4C[C@@H](NCCCNCCCCN)CC[C@]4(C)[C@H]3CC[C@]12C)OS(=O)(=O)O", "note": "(single isomer, unassigned; ent-01) [ENT-01]", "values": [{"measurement": "PDHQ, Fixed dose (Mean, SD)", "setting": "patients with PD; Stage 2, end of fixed dose period, baseline 1.3 (2.99)", "result": 1.8}, {"measurement": "BDI-II, Fixed dose (Mean, SD)", "setting": "patients with PD; Stage 2, end of fixed dose period, baseline 10.9 (7.12)", "result": 9.9}, {"measurement": "UPDRS Part 1 (NMS), Fixed dose (Mean, SD)", "setting": "patients with PD; Stage 2, end of fixed dose period, baseline 11.6 (6.51)", "result": 10.6}, {"measurement": "UPDRS Part 2 (Daily living), Fixed dose (Mean, SD)", "setting": "patients with PD; Stage 2, end of fixed dose period, baseline 14.9 (8.11)", "result": 14.7}, {"measurement": "MMSE, Fixed dose (Mean, SD)", "setting": "patients with PD; Stage 2, end of fixed dose period, baseline 28.4 (1.75)", "result": 28.7}, {"measurement": "UPDRS Part 3 (Motor), Fixed dose (Mean, SD)", "setting": "patients with PD; Stage 2, end of fixed dose period, baseline 35.3 (14.35)", "result": 33.3}, {"measurement": "UPDRS Total, Fixed dose (Mean, SD)", "setting": "patients with PD; Stage 2, end of fixed dose period, baseline 64.4 (23.72)", "result": 60.6}, {"measurement": "PDHQ, Wash-out (Mean, SD)", "setting": "patients with PD; Stage 2, end of wash-out period, baseline 1.3 (2.99)", "result": "0.9 (2.33)"}, {"measurement": "BDI-II, Wash-out (Mean, SD)", "setting": "patients with PD; Stage 2, end of wash-out period, baseline 10.9 (7.12)", "result": "8.7 (5.19)"}, {"measurement": "UPDRS Part 1 (NMS), Wash-out (Mean, SD)", "setting": "patients with PD; Stage 2, end of wash-out period, baseline 11.6 (6.51)", "result": "9.5 (5.27)"}, {"measurement": "UPDRS Part 2 (Daily living), Wash-out (Mean, SD)", "setting": "patients with PD; Stage 2, end of wash-out period, baseline 14.9 (8.11)", "result": "14.1 (8.21)"}, {"measurement": "MMSE, Wash-out (Mean, SD)", "setting": "patients with PD; Stage 2, end of wash-out period, baseline 28.4 (1.75)", "result": "29.3 (1.06)"}, {"measurement": "UPDRS Part 3 (Motor), Wash-out (Mean, SD)", "setting": "patients with PD; Stage 2, end of wash-out period, baseline 35.3 (14.35)", "result": "30.2 (13.23)"}, {"measurement": "UPDRS Total, Wash-out (Mean, SD)", "setting": "patients with PD; Stage 2, end of wash-out period, baseline 64.4 (23.72)", "result": "55.7 (23.69)"}, {"measurement": "hallucinations in one patient", "setting": "patients with PD; at 100 mg (prokinetic dose of this patient 175 mg)", "result": "disappeared"}, {"measurement": "BDI-II", "setting": "patients with PD; at wash-out", "result": 8.7}, {"measurement": "patients in whom hallucinations and delusions improved or disappeared", "setting": "patients with PD; during treatment", "result": "5 of 6"}, {"measurement": "PDHQ", "setting": "patients with PD; during treatment, baseline 1.3", "result": 1.8}, {"measurement": "BDI-II", "setting": "patients with PD; during treatment, baseline 10.9", "result": 9.9}, {"measurement": "MMSE", "setting": "patients with PD; during treatment, baseline 28.4", "result": 28.7}, {"measurement": "MMSE", "setting": "patients with PD; during wash-out", "result": 29.3}, {"measurement": "PDHQ", "setting": "patients with PD; during wash-out", "result": 0.9}, {"measurement": "motor component of the UPDRS", "setting": "patients with PD; end of fixed dose, baseline 35.3", "result": 33.3}, {"measurement": "Total UPDRS score", "setting": "patients with PD; end of the fixed dose period, baseline 64.4", "result": 60.6}, {"measurement": "Total UPDRS score", "setting": "patients with PD; end of the wash-out period", "result": 55.7}, {"measurement": "motor component of the UPDRS", "setting": "patients with PD; end of wash-out", "result": 30.2}, {"measurement": "time free of hallucinations following cessation of dosing", "setting": "patients with PD; one patient", "result": 1, "unit": "month"}, {"measurement": "time without return of hallucinations/delusions following discontinuation", "setting": "patients with PD; single patients", "result": "4 weeks and 2 weeks"}, {"measurement": "formation of aggregates of αS", "setting": "αS", "result": "inhibit the formation of aggregates"}, {"measurement": "tolerability", "setting": "[1]", "result": "well tolerated"}, {"measurement": "oral bioavailability", "setting": "[1]; preclinical studies", "result": "about 0.1%"}]}
{"smiles": "CC(C)[C@@H](CC[C@@H](C)[C@H]1CC[C@H]2[C@@H]3[C@H](O)C[C@H]4C[C@@H](NCCCNCCCCN)CC[C@]4(C)[C@H]3CC[C@]12C)OS(=O)(=O)O", "note": "[squalamine]", "values": [{"measurement": "duration of the aminosterol-induced response", "setting": "[2]", "result": "about 4 days"}]}
